Test results published in paper PMC10661964 (Current Drug Metabolism, 2023).
pIC50: −log10 of the molar value. Where “and” joins values, the source holds several entries; their conditions need not be identical. Equal values may be shown once. Read-outs that look alike come from different tables or passages of the source. Marks after values point to notes of the source that are not given here.

Tests used:
[1] = Stability study: metabolite profiles in snap-frozen plasma and urine at early timepoints after oral [14C]-nifurtimox; assay type: in vivo, male Wistar rats; settings: for share of sample radioactivity in plasma / share of sample radioactivity in urine: oral 2.5 mg/kg, snap-frozen
Procedure: (§1) Animals were housed in suitable metabolism cages. […] Blood cells and plasma were separated by centrifugation. Plasma was stored at ≤-15°C prior to analysis. […] All biological samples were weighed immediately. […] The remaining carcass was also wet-weighed.
The combined supernatant was analyzed directly using HPLC-LSC.

[2] = Mass balance and metabolite profiling in excreta after oral [14C]-nifurtimox in intact rats; settings: for component excreted in urine, oral dosing: intact male Wistar rats, 2.5 mg/kg oral; for component excreted in urine, oral dosing / radioactivity excreted in urine / radioactivity excreted in feces: up to 120 h
Procedure: (§2) After an adaption period, the animals were prepared for the study. Bile duct cannulation was performed on selected animals the day before their use in experiments.
(§3) In a mass balance study (n = 5) and a PK study (n = 2 per timepoint), 2.5 mg/kg b.w. […] For i.v. administration, 2.5 mg/kg b.w. […] In an additional stability study, male Wistar rats (n = 3 per timepoint) were administered 2.5 mg/kg b.w. […] The total radioactivity concentration in the dosage form was confirmed by liquid scintillation counting (LSC).
(§4) Animals were housed in suitable metabolism cages. Blood was collected from separate rats at 0.25, 0.5, 1, 1.5, 2, 3, 5, and 8 h post-dose and stored in lithium heparinized tubes. Blood cells and plasma were separated by centrifugation. Plasma was stored at ≤-15°C prior to analysis. […] At the end of the study, the cages were rinsed with water, and samples were collected. All biological samples were weighed immediately. Feces samples were homogenized with water to obtain a uniform radioactivity distribution. All samples were stored deep-frozen at ≤-15/-70°C before further processing. During the necropsy, selected organs and tissues were collected and wet-weighed. The remaining carcass was also wet-weighed. The carcass and all tissues were homogenized and stored at room temperature prior to processing for analysis. In the stability study, blood and urine were collected at 0.25 and 0.5 h post-dose. Plasma and urine were immediately frozen in liquid nitrogen and stored at -80°C to prevent degradation. The total radioactivity in samples and tissues was determined by LSC after appropriate sample preparation.
(§5) Aliquots of individual urine or bile samples were pooled separately for each time interval by equal volume and analyzed using HPLC-LSC. Aliquots of individual feces samples were pooled separately for each time interval, ensuring that each aliquot contained the same amount of radioactivity. The pooled samples were extracted twice with a mixture of acetonitrile/water (80:20 v/v, 2 x 0.5 mL). The resulting suspensions were centrifuged (20,000 g, 5 min), and the supernatants were then combined for each time interval, concentrated, and subjected to HPLC-LSC.
(§6) The amount of total radioactivity in urine, feces, bile, and tissues was determined by multiplying the volume or weight of the samples by the respective total radioactivity concentration. The amount of radioactivity recovered in the excreta (AE), cage wash, and tissues was compared with the administered radioactive dose to establish the radioactive balance. Cumulative excretion was calculated as the sum of the excretion for each collection interval. Arithmetic means and coefficients of variation (CV) were calculated for these percentages. During metabolite profiling, the concentration or amount of each analyte for each sample and timepoint or interval was calculated by multiplying the total radioactivity concentration or amount excreted of each sample with the percent area of each analyte obtained after HPLC-LSC separation.

[3] = Mass balance and metabolite profiling in excreta after i.v. [14C]-nifurtimox in bile duct-cannulated (BDC) rats; assay type: in vivo, male Wistar rats; settings: for administered dose secreted directly into the gut: gastrointestinal tract + feces
Procedure: as §1

[4] = Procedure: One aliquot of a pooled urine sample taken at 0.25 h post-dose was analyzed immediately using HPLC-LSC. Further aliquots were analyzed after storage for 24 h at room temperature. […] After incubation for 22.5 h at 37°C with shaking, incubations were terminated by the addition of acetonitrile, then extracted (three times with 2 mL acetonitrile for 30 min) and centrifuged (1726 g, 3 min). The combined supernatant was analyzed directly using HPLC-LSC.
[5] = humans, dogs, and rats, oral administration; cited from earlier work
[6] = in vitro; settings: rat, plasma
[7] = human, estimation accounting for GFR, fu (57.6%), and AUC
[8] = cited from earlier work
[9] = within 2-3 days of oral or i.v. dosing in rats and dogs; cited from earlier work
[10] = Plasma PK of total radioactivity, [14C]-nifurtimox and metabolites after oral dosing (HPLC-LSC); assay type: in vivo; settings: male Wistar rats; for half-life / Tmax: rat; for half-life: read-out: t½ (converted)
Procedure: as §1
Aliquots of individual plasma samples were pooled separately for each timepoint by equal volume. For protein precipitation, pooled plasma was treated with a three-fold volume of acetonitrile. Samples were homogenized and precipitated by centrifugation (20,000 g, 5 min). Samples were concentrated and analyzed using high-performance liquid chromatography (HPLC) with off-line radioactivity detection by LSC (HPLC-LSC).

[11] = rats, assuming oral bioavailability of 90% and fu 62.1%
[12] = rat, in vivo, 2.5 mg/kg
Procedure: as §2, §3, §4, §5, §6

[13] = target: CYP 2C19 (Homo sapiens, UniProt P33261); experiment: CYP inhibition with probe substrate; assay type: in vitro ADME; settings: probe substrate mephenytoin
Sequence of CYP 2C19 (P33261 whole entry, canonical isoform): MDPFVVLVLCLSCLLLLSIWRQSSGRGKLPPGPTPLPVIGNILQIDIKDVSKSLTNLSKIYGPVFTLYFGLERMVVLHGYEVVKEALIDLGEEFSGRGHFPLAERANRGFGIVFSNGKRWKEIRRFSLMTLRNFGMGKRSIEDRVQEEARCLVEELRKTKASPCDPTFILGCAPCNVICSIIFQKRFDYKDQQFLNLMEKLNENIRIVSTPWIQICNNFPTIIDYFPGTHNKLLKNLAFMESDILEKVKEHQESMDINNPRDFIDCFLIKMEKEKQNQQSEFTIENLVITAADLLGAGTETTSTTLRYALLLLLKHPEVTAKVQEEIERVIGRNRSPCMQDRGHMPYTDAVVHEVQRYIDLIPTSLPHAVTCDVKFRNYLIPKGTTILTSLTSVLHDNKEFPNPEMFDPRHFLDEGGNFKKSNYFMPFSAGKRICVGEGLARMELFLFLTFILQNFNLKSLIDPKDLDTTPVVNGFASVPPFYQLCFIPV
Source text: The inhibition of cytochrome P450 (CYP) isoforms and a range of cellular transporters (except multidrug and toxin extrusion [MATE] proteins), as well as the induction of CYP isoforms were investigated using previously described methods.

[14] = total radioactivity, oral 2.5 mg/kg, intact rats
[15] = total radioactivity, oral 2.5 mg/kg, intact rats, listed as [^14C]-nifurtimox, 2.5 mg/kg
[16] = BDC male Wistar rats, 2.5 mg/kg i.v., up to 24 h
[17] = total radioactivity, i.v. 2.5 mg/kg, BDC rats
[18] = total radioactivity, i.v. 2.5 mg/kg, BDC rats, 24 h
[19] = total radioactivity, i.v. 2.5 mg/kg, BDC rats, 24 h, listed as [^14C]-nifurtimox, 2.5 mg/kg
[20] = total radioactivity, i.v. 2.5 mg/kg, BDC rats, 24 h, listed as [14C]-nifurtimox, 2.5 mg/kg
[21] = oral, Medenwald et al. and seven healthy volunteers
[22] = single oral 2.5 mg/kg [14C]-nifurtimox, pooled plasma
[23] = 30-min preincubation, read-out: Pre- IC50 (+ NADPH)
[24] = coincubation, read-out: Co- IC50

CC1CS(=O)(=O)CCN1/N=C/c1ccc([N+](=O)[O-])o1 (stereo not shown) [Nifurtimox, (E)-N-(3-methyl-1,1-dioxo-1,4-thiazinan-4-yl)-1-(5-nitrofuran-2-yl) methanimine, reference compound]
share of sample radioactivity in plasma ([1]; 0.25 h post-dose): 81.5 % of sample radioactivity | share of sample radioactivity in urine ([1]; 0.25 h post-dose): 11 % of sample radioactivity | share of sample radioactivity in plasma ([1]; 0.5 h post-dose): 72.5 % of sample radioactivity | share of sample radioactivity in urine ([1]; 0.5 h post-dose): 4 % of sample radioactivity | stability in plasma ([1]; authors' conclusion from plasma profiles): appears to be stable in plasma | component excreted in urine, oral dosing ([2]; 2.5 mg/kg): 0.117 % of the administered dose | component excreted in urine, oral dosing ([2]; listed as [^14C]-nifurtimox, 2.5 mg/kg): 0.1 % of the administered dose | component excreted in urine, oral dosing ([2]; listed as nifurtimox, 2.5 mg/kg): < 1 % of the administered dose | share of sample radioactivity in urine ([2]; pooled urine 0-8 h post-dose, oral 2.5 mg/kg): 0.3 % of sample radioactivity | total recovery including excreta, residues, and cage wash ([2]; total radioactivity, 120 h after oral dosing): 97.3% | administered radioactivity excreted within 24 h [2, 14]: approximately 86% | radioactivity excreted within 120 h (urine + feces) [2, 14]: 92.4 % of dose | radioactivity excreted in urine ([2]; total radioactivity, oral 2.5 mg/kg, intact rats, 2.5 mg/kg): 48.6 % of dose | radioactivity excreted in feces ([2]; total radioactivity, oral 2.5 mg/kg, intact rats, listed as [14C]-nifurtimox, 2.5 mg/kg): 43.8 % of dose | radioactivity excreted in feces [2, 15]: 43.8 % of dose and 49 % of dose | radioactivity excreted in urine [2, 15]: 48.6 % of dose and 44 % of dose | component excreted in urine, i.v. dosing [3, 16]: 0.847 % of the administered dose | component excreted in bile, i.v. dosing ([3]; BDC male Wistar rats, 2.5 mg/kg i.v., up to 24 h, 2.5 mg/kg): 0.560 % of the administered dose | component excreted in bile, i.v. dosing ([3]; BDC male Wistar rats, 2.5 mg/kg i.v., up to 24 h, listed as nifurtimox, 2.5 mg/kg): 0.6 % of the administered dose | administered dose excreted in bile within 24 h [3, 17]: 17.7% | administered dose excreted in urine within 24 h [3, 17]: 49.6% | recovery of administered radioactivity at 24 h [3, 17]: 94.2% | dose in residues (body excluding the GIT) [3, 18]: 17.6% | dose in the cage wash [3, 18]: 2.48% | administered dose secreted directly into the gut ([3]; total radioactivity, i.v. 2.5 mg/kg, BDC rats, 24 h, 2.5 mg/kg): < 7% | administered dose secreted directly into the gut [3, 19]: 6.9% | dose excreted in feces [3, 20]: 2.45% | dose present in the gastrointestinal tract including contents [3, 20]: 4.45% | dose excreted in feces [3, 19]: 2.5% | dose present in the gastrointestinal tract including contents [3, 19]: 4.5% | stability in aqueous control without feces ([4]; 8.8 µM, 37°C, 22.5 h, anaerobic, data not shown): no degradation | stability in rat feces ([4]; 8.8 µM, aqueous suspension of fresh rat feces, 37°C, 22.5 h, anaerobic): unstable in rat feces | stability in rat urine ([4]; pooled 0.25 h post-dose urine reanalyzed after storage at room temperature for 24 h): undetectable | unlabeled nifurtimox excreted in urine [5]: no more than 0.5 % of the administered dose | fraction unbound [6]: 0.621 | dose expected to be excreted unchanged in urine [7]: approximately 10% | tmax, patients who had eaten before dosing ([8]; Phase 1 food-effect PK study): 4 h | Tmax [8, 21]: 2 to 3 h | average elimination half-life (t½) [8, 21]: approximately 3 hours | AUC greater in fed compared to fasting patients ([8]; same nifurtimox dose, Phase 1 food-effect study): 70% | administered radioactivity detected in urine [9]: 40-50% | t½ ([10]; single oral 2.5 mg/kg [14C]-nifurtimox, plasma, interval up to 8 h, 2.5 mg/kg): 1.44 h | AUC [10, 22]: 1730 µg-eq*h/L | AUC(0-8) [10, 22]: 1680 µg-eq*h/L | AUC(0-tn) [10, 22]: 1570 µg-eq*h/L | Cmax [10, 22]: 755 µg-eq/L | tn (time of last quantifiable concentration) [10, 22]: 5 h | half-life ([10]; male, Wistar, plasma, po, 2.5 mg/kg, single oral 2.5 mg/kg [14C]-nifurtimox, plasma, interval up to 8 h): 1.4 h | Tmax [10, 22]: 0.5 h | tmax of radioactivity ([10]; total radioactivity, oral 2.5 mg/kg): 0.5 h | theoretical excretion based on glomerular filtration rate [11]: 23 % of the dose | component excreted in feces, oral dosing [12]: No unchanged drug was detected

CC1CS(=O)(=O)CCN1n1cc(SCC(N)C(=O)O)ccc1=O (stereo not shown) [M-4]
component excreted in urine, oral dosing [2]: no M-4 was detected | component excreted in bile, i.v. dosing [3, 16]: 0.968 % of the administered dose | %AUC(0-8) (relative to total radioactivity AUC(0-8)) ([10]; oral 2.5 mg/kg, M-2+M-3, M-4, M-5 are estimates based on AUC(0-tn), 2.5 mg/kg): 2.42^c % | AUC [10, 22]: 791 µg-eq*h/L | AUC(0-tn) [10, 22]: 107 µg-eq*h/L | Cmax [10, 22]: 48.3 µg-eq/L | tn (time of last quantifiable concentration) [10, 22]: 3 h | half-life ([10]; single oral 2.5 mg/kg [14C]-nifurtimox, plasma, interval up to 8 h): 12.3 h | Tmax [10, 22]: 0.5 h | pIC50 [13, 23]: < 4.70 | pIC50 [13, 24]: < 4.70 | TDI (time-dependent inhibition) [13]: No

CC1CS(=O)(=O)CCN1N (stereo not shown) [M-6]
pIC50 [13, 23]: < 4.00 | pIC50 [13, 24]: < 4.00 | TDI (time-dependent inhibition) [13]: No
